In PMC5129982, “Screen-identified selective inhibitor of lysine demethylase 5A blocks cancer cell growth and drug resistance” (Oncotarget, 2016):

Key:
[1] = test system: H3K4 methylation in ZR-75-1 cells; assay: Western blot of global H3K4 methylation, ZR-75-1; type: cell-based, human; conditions: ZR-75-1, 48 hour treatment
Procedure: (§1) Cells were lysed as described previously. Histones were separated by centrifugation, resuspended in Laemmeli buffer, and sonicated. Protein concentration of cell lysates was measured by Bradford assay. Samples in Laemmeli buffer were boiled 10 minutes at 95°C and loaded onto 7% (whole cell lysates) or 18% (histones) SDS-PAGE gels. Membranes were blocked in 4% non-fat milk in Tris-buffered saline with 0.05% Tween (TBS-T) and incubated with primary antibodies in the same buffer or 5% bovine serum albumin in TBS-T overnight at 4°C. Membranes were incubated with secondary anti-rabbit or anti-mouse antibodies for one hour at room temperature. Blots were visualized by Thermo Scientific Pierce ECL Western Blotting Substrate (32106) or EMD Millipore Immobilon Western Chemiluminescent HRP Substrate (WBKLS0100) on film. Signal was quantified using ImageJ software.

BT474 cells = assay: Colony formation assay, BT474 (trastuzumab tolerance); type: cell-based, human
Procedure: (§2) Cells were seeded in 6-well plates at low density: HeLa, MCF7, BT474, and PC9 cells at 1000, 2000, 2500, and 2000 cells/well respectively. Media containing the prescribed drugs or 0.1% DMSO was replaced every 3 days. Trastuzumab was used at 5 μg/ml. Gefitinib was used at 2 μM. YUKA1 was used at 50 or 100 μM. Doxycycline was used at 1 μg/ml for 3 days. After 7–42 days depending on the rate of cell growth, cells were fixed in 4% para-formaldehyde in phosphate-buffered saline for 10 minutes rocking at room temperature. They were incubated in 0.05% crystal violet in double-distilled water for 30 minutes rocking at room temperature, washed with water, and dried 24 hours before photographing. ColonyArea, a plugin for ImageJ software, was used for quantification. Unpaired, two-tailed student's t-test calculated using GraphPad Prism 6.0 software was used to determine significance.

HeLa cells = assay: Colony formation assay, HeLa; type: cell-based, human; conditions: two-week treatment, 50 or 100 μM
Procedure: as §2

PC9 cells = assay: Colony formation assay, PC9 (gefitinib tolerance); type: cell-based, human
Procedure: as §2

FLAG-KDM5C = target: T1, FLAG-KDM5C (Homo sapiens, UniProt P41229); assay: AlphaScreen KDM5C demethylation assay; type: biochemical
T1 construct: Full-length FLAG-KDM5B, FLAG-KDM5C, and His-FLAG-KDM6A production was detailed previously; FLAG (N); made in house
Procedure: (§3) Histone demethylase assays were performed as described previously, with the exception of all enzyme reactions containing 125 μM α-KG. Enzymes were used at the following approximate concentrations in validation experiments, chosen based on their activity in AlphaScreen assays: 19 nM FLAG-KDM5A, 15 nM FLAG-KDM5B, 6 nM FLAG-KDM5C, 29 nM His-FLAG-KDM6A, and 16 nM FLAG-KDM6B. 24 nM FLAG-KDM5A was used for Km determination experiments. Reactions were carried out for 1 hour, or were stopped by addition of 30 mM EDTA every 5 minutes for determining enzyme kinetics. Km values were calculated using the Michaelis-Menten non-linear regression analysis on GraphPad Prism 6.0 software. The concentration of DMSO in demethylation reactions was 0.05%. For reactions with catalase, catalase (Sigma C30) or an equal volume of dilution buffer was added to the peptide-containing buffer before addition of the demethylase. The final concentration of catalase in the reactions was 0.01 mg/ml.
(§4) The AlphaScreen general IgG (protein A) detection kit from PerkinElmer Life Sciences was used as described previously. The luminescence emission was recorded at 570 nm using the AlphaScreen optic module on a Pherastar (BMG Labtech) or Envision (PerkinElmer Life Sciences) microplate reader.

MCF7 cells = assay: WST-1 proliferation assay, MCF7; type: cell-based, human; conditions: MCF7, after 3 days
Procedure: WST-1 reagent from Roche Applied Sciences (11644807001) was used to measure cell number before drug addition and after 3 or 5 days of growth as described previously. Cells were seeded in 96-well plates at the following number of cells per well: HeLa (2000), MCF7 (2000), ZR-75-1 (1000), MCF10A (1000), MDA-MB-231(5000). DMSO was used at 0.1%. Relative absorbance was calculated by subtracting the average background (media only) signal, dividing by the average signal on day 0, and then dividing by the average day 5/day 0 ratio for the DMSO controls. Significance was calculated by unpaired, two-tailed student's t-test using GraphPad Prism 6.0 software.

His-FLAG-KDM6A (UTX) = target: T2, His-FLAG-KDM6A (UTX) (Homo sapiens, UniProt O15550); assay: AlphaScreen KDM6A demethylation assay; type: biochemical
T2 construct: Full-length FLAG-KDM5B, FLAG-KDM5C, and His-FLAG-KDM6A production was detailed previously; His (N); FLAG (N); made in house
Procedure: as §3, §4

[2] = test system: H3K4 methylation in MDA-MB-231 cells; assay: Western blot of global H3K4 methylation, MDA-MB-231; type: cell-based, human; conditions: MDA-MB-231, 72 hr treatment
Procedure: as §1

T1 sequence (P41229 whole entry): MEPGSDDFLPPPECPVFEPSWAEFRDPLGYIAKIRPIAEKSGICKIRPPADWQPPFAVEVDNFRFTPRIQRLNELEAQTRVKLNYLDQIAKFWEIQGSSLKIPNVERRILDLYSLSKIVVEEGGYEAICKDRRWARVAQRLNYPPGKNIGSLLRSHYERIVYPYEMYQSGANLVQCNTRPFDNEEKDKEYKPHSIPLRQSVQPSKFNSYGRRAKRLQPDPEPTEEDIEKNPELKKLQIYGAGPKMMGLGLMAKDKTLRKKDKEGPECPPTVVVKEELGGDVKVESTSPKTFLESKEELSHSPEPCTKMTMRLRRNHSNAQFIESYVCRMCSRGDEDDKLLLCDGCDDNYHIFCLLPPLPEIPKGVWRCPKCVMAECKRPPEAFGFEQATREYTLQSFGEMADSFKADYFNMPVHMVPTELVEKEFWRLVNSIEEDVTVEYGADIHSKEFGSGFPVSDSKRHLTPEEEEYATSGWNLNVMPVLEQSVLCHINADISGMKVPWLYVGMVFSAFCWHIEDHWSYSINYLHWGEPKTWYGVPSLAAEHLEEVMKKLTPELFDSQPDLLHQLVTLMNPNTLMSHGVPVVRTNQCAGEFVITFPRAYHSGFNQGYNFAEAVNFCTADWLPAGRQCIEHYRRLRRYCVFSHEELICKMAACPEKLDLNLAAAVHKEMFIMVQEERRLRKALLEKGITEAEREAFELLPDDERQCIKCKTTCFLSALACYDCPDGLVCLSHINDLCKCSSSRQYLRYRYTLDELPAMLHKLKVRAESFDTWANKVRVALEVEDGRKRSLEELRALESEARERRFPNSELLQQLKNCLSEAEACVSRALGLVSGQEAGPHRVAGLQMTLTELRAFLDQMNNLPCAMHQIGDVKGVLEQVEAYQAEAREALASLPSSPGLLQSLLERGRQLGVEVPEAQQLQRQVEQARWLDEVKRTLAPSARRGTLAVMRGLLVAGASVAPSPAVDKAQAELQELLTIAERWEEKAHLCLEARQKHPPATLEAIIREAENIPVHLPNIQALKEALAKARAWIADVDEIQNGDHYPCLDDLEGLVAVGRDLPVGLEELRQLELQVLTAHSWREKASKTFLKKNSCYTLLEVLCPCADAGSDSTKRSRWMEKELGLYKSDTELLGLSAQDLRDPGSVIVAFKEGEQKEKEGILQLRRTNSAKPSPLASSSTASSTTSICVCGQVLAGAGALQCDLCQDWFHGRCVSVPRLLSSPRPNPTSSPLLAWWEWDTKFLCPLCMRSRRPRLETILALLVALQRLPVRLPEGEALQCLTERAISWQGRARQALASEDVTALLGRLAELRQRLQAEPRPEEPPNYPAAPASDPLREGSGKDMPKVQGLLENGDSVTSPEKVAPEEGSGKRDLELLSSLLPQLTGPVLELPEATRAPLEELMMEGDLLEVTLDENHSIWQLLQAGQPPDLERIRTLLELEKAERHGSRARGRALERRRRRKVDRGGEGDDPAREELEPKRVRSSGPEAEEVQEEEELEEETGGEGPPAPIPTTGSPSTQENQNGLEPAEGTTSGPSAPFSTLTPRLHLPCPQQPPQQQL
T2 sequence (O15550 whole entry): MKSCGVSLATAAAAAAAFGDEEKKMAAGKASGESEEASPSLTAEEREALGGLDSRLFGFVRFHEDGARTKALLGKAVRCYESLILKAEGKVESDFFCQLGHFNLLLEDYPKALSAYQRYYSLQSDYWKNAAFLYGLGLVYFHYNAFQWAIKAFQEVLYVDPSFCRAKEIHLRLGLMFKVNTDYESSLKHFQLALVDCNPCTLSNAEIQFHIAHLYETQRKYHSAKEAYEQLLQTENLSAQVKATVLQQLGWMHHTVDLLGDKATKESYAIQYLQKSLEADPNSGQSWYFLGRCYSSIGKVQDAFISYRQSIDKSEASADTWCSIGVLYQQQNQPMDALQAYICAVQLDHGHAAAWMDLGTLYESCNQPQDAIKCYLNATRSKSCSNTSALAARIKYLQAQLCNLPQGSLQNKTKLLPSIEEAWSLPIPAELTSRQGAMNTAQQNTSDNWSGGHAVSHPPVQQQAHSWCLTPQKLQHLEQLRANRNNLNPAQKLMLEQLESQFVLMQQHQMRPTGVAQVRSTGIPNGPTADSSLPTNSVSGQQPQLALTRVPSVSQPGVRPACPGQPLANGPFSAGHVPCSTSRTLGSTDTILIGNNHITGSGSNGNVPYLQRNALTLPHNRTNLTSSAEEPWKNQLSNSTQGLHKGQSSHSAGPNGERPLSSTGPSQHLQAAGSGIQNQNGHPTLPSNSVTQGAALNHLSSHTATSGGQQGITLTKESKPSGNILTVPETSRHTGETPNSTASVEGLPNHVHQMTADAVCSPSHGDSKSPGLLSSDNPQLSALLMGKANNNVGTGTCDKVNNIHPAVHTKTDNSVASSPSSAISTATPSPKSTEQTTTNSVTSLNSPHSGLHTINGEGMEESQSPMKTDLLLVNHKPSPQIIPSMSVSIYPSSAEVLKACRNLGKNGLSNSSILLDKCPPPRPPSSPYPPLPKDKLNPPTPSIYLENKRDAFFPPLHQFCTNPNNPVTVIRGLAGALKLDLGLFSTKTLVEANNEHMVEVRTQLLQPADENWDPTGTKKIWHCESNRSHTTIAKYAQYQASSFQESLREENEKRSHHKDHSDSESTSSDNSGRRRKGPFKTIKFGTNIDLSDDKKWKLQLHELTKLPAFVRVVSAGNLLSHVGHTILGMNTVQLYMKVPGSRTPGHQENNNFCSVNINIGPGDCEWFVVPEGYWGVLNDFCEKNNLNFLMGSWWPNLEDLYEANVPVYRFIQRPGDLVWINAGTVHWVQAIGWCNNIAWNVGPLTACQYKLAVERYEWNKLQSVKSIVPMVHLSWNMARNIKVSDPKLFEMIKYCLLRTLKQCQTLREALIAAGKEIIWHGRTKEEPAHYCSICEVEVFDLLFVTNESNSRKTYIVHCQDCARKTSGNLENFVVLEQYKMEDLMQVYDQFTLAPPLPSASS

## C=CCOc1c(CNn2cnnc2S)cccc1OC [YUKA1, 4-([2-(allyloxy)-3-methoxybenzyl]amino)-4H-1,2,4-triazole-3-thiol]
[1]
  global H3K4me3 levels: increased global H3K4me3 levels
BT474 cells; BT474, 35 days
  cell growth, compound alone: not changed
BT474 cells; BT474, plus 5 μg/ml trastuzumab, 42 days
  emergence of colonies under trastuzumab: significantly less
HeLa cells
  number of colonies formed compared to DMSO: significantly reduced
PC9 cells; PC9, 7 days
  cell growth, compound alone: not significantly affected
PC9 cells; PC9, plus 2 μM gefitinib, 35 days
  colony formation during long-term gefitinib treatment: fewer YUKA1-treated cells formed colonies
FLAG-KDM5C
  fold less active against KDM5C (than KDM5A): ~ 3 fold
FLAG-KDM5C; AlphaScreen
  IC50: 7.12 µM
MCF7 cells
  proliferation: not affected
His-FLAG-KDM6A (UTX)
  IC50: > 50 µM
[2]
  H3K4 methylation: only minor changes
